Measured values from patent US20250034127A1, “AUTOPHAGY INDUCING COMPOUNDS AND USES THEREOF, IN PARTICULAR FOR DISEASES OF THE CNS” (Samsara Therapeutics Inc., priority 2021, published 2025).
Where two headings read alike, the source gives them in different places.

What was measured:
[1] = Bioavailability / brain and plasma pharmacokinetics after oral dosing; format: in vivo; settings: CD1 mice; for half-life / bioavailability: mouse
Text: The compounds according to the invention have good properties for oral dosing and readily cross the blood brain barrier.

[2] = tested on: primary culture of dopaminergic Tyrosine hydroxylase (TH)-positive neurons; experiment: Cellular model of Parkinson's disease (MPTP/MPP+ injury); format: cell-based, rat; settings: for decrease in α-syn area per dopaminergic TH positive neuron / increase in the length of the neurite network of dopaminergic TH positive neurons / increase in the number of dopaminergic TH positive neurons: compared to MPP+ injury alone
Text: This model (run by Neuro-Sys SAS, France) is based on a primary culture of dopaminergic Tyrosine hydroxylase (TH)-positive neurons injured with the dopaminergic neurons-specific toxin (DA-toxin) 1-methyl-4-phenyl-1,2,3,6 tetrahydropyridine (MPTP, a prodrug of MPP^+) (Dauer and Przedborski, 2003). Any substances reducing DA-toxin neurotoxicity may be useful as a new therapeutic agent for the treatment or prevention of PD.
Primary culture of mesencephalic neurons: Rat dopaminergic neurons were cultured as described by Visanji et al., 2008 and Callizot et al., 2019. Briefly, pregnant female rat (Wistar) of 15 days of gestation were killed using a deep anesthesia with CO2 chamber and a cervical dislocation. The midbrains obtained from 15-day-old rat embryos (Janvier, France) were dissected under a microscope. The embryonic midbrains will be removed and placed in ice-cold medium of Leibovitz (L15) containing 2% of Penicillin-Streptomycin (PS) and 1% of bovine serum albumin (BSA). The ventral portion of the mesencephalic flexure, a region of the developing brain rich in dopaminergic neurons, was used for the cell preparations.
The midbrains were dissociated by trypsinisation for 20 min at 37° C. (solution at a final concentration of 0.05% trypsin and 0.02% EDTA). The reaction was stopped by the addition of Dulbecco's modified Eagle's medium (DMEM) containing DNAase I grade II (0.5 mg/mL) and 10% of foetal calf serum (FCS). Cells were then mechanically dissociated by 3 passages through a 10 ml pipette. Cells were then centrifuged at 180×g for 10 min at +4° C. on a layer of BSA (3.5%) in L15 medium. The supernatant was discarded, and the cell pellets re-suspended in a defined culture medium consisting of Neurobasal supplemented with B27 (2%), L-glutamine (2 mM) and 2% of PS solution and 10 ng/mL of Brain-derived neurotrophic factor (BDNF) and 1 ng/ml of Glial-Derived Neurotrophic Factor (GDNF). Viable cells were counted in a Neubauer cytometer using the trypan blue exclusion test. The cells were seeded at a density of 40,000 cells/well in 96 well-plates (pre-coated with poly-L-lysine) and maintained in a humidified incubator at 37° C. in 5% CO2/95% air atmosphere. Half of the medium was changed every 2 days with fresh medium. The wells of first and last lines and columns […] (to avoid any edge effect) and were be filled with sterile water.
• i) Pre-incubation. On day 6 of culture, the test compounds were dissolved in PBS or DMSO and incubated for 1 hour before the MPTP exposure. • ii) Injury. One hour after the application of test compound, MPTP was added to a final concentration of 4 μM, diluted in control medium still in presence of compounds/inhibitors for 48 h. Test compounds were tested on one culture in 96-well plate (n=6 culture wells per condition).
Immunostaining: TH and α-Synuclein. 48 Hours after intoxication, the cell culture supernatant was removed, and the cells were fixed by a solution of 4% paraformaldehyde in PBS, pH=7.3 for 20 min at room temperature. The cells were washed twice in PBS, and then permeabilized. Non-specific sites were blocked with a solution of PBS containing 0.1% of saponin and 1% FCS for 15 min at room temperature. The cultures were incubated with: (a) monoclonal anti-Tyrosine Hydroxylase (TH) antibody produced in mouse at dilution of 1/10000 in PBS containing 1% FCS, 0.1% saponin, for 2 hours at room temperature, and (b) polyclonal anti-alpha synuclein (α-synuclein) antibody produced in rabbit at dilution of 1/200 in PBS containing 1% FCS, 0.1% saponin, for 2 h at room temperature.
Automatic computer analysis. For each condition, 20 pictures (representing the whole well area) were automatically taken using ImageXpress® (Molecular Devices) at 10× magnification (20 pictures, for TH and α-synuclein into TH neurons) using the same acquisition parameters. From images, analyses was directly and automatically performed by MetaXpress® (Molecular Devices). […]

[3] = tested on: primary spinal cord lower motor neurons (MNs) from SOD1 G93A Tg rats; experiment: Cellular model of Amyotrophic Lateral Sclerosis (glutamate injury); format: cell-based, rat
Description: Compounds 157 (particularly) preferred), 185 and 196 were selected example compounds if this invention to evaluate in this model. This model (run by Neuro-Sys SAS, France) evaluates the protective effects of test compounds on primary spinal cord lower motor neurons (MNs) from SOD1 G93A Tg rats, after a glutamate injury. The MNs are pre-treated with the test compounds for 1 hour prior to exposure to glutamate, and readouts are measured 24 hours later. This model functions as an in vitro model of Amyotrophic Lateral Sclerosis. […] Any substances which can attenuate one or more of these effects can be considered to have protective effects in the model and may be useful as a new therapeutic agent for the treatment or prevention of ALS.
Genotyping of SOD1 Tg embryos: Pregnant female rat SODIG93A (Sprague Dawley, Taconic), of 14 days of gestation were obtained fromTaconic Bioscience. On the day of the dissection (from pregnant females at 14 days of gestation), a piece of each embryo brain (˜3 mm) was placed in a 2 mL tube free DNase with a new scalpel. The DNA was extracted with the SYBR Green Extract-N-Amp tissue PCR kit (Sigma Aldrich). Briefly, 120 μL of extraction solution was put on each piece of embryo heads. Then, they were incubated for 10 min at room temperature. At the end of this incubation period, the heads were incubated for 5 min at 95° C. Immediately after this last incubation, 100 μL of neutralizing solution was added; each DNA extract was diluted at 1/40 and stored at +4° C. until use. SOD1G93A gene was determined using genomic fragment with human SOD1 primers (5′-[…]-3′ (SEQ ID NO: 1); 5′-[…]-3′ (SEQ ID NO: 2)). The SOD1 primers were diluted at 3 μM in sterile ultrapure water. Briefly, a mix for PCR was prepared with ultrapure water (4 μL per sample), primer at 3 μM (2 μL per sample) and Master Mix (10 μL per sample). In a PCR 96 wells plate, 16 μL of PCR mix was added in each well. 4 μL of each diluted DNA was added according to a plan deposit. The RT-PCR was ran using the CFX96 Biorad RT-PCR system, using the following program: Initial denaturation (95° C., 20 sec)/45 cycles (95° C., 10 sec; 65° C., 10 sec; 72° C., 30 sec)/Melt curve (95° C., 15 sec; 64° C., 1 min; 90° C., 30 sec; 60° C. 15 sec). The amplification plots and melt curves were analyzed with the Biorad software. The results for each sample were compared to negative control (ultrapure water) and to the positive control (DNA from Tg embryos).
Rat spinal cord motor neurons (MNs) were be cultured as described by Wang et al. 2013 and Boussicault et al., 2020. Briefly, pregnant female rats of 14 days gestation (Sprague Dawley; Taconic) were killed using a deep anesthesia with CO2 chamber and a cervical dislocation. Then, fetuses were removed from the uterus and immediately placed in ice-cold L15 Leibovitz medium with a 2% penicillin (10,000 U/ml) and streptomycin (10 mg/ml) solution (PS) and 1% bovine serum albumin (BSA).
Spinal cords were treated for 20 min at 37° C. with a trypsin-EDTA solution at a final concentration of 0.05% trypsin and 0.02% EDTA. The dissociation was stopped by addition of Dulbecco's modified Eagle's medium (DMEM) with 4.5 g/liter of glucose, containing DNAse I grade II (final concentration 0.5 mg/mL) and 10% fetal calf serum (FCS). Cells were mechanically dissociated by three forced passages through the tip of a 10-ml pipette. Cells were then centrifuged at 515×g for 10 min at 4° C. The supernatant was discarded, and the pellet was resuspended in a defined culture medium consisting of Neurobasal medium with a 2% solution of B27 supplement, 2 mmol/liter of L-glutamine, 2% of PS solution, and 10 ng/ml of brain-derived neurotrophic factor (BDNF). Viable cells were counted in a Neubauer cytometer, using the trypan blue exclusion test. The cells were seeded at a density of 20,000 per well in 96-well plates precoated with poly-L-lysine and will be cultured at 37° C. in an air (95%)—CO2 (5%) incubator. […]

[4] = brain, oral dose of 30 mg/kg, read-out: half-life in the brain (converted)
[5] = plasma, oral, 30 mg/kg, read-out: half-life in plasma (converted)

Row | SMILES | maximum concentration in brain plasma ([1]; oral dose of 30 mg/kg) [ng/mL] | time of maximum concentration in brain plasma ([1]; oral dose of 30 mg/kg) [h] | half-life [1, 4] [h] | bioavailability ([1]; plasma, 30 mg/kg, oral) [%] | half-life [1, 5] [h] | effects in the in vitro model of PD based on MPP+ injury [2] | decrease in α-syn area per dopaminergic TH positive neuron ([2]; 1 μM) [%] | increase in the length of the neurite network of dopaminergic TH positive neurons ([2]; 1 μM) [%] | increase in the number of dopaminergic TH positive neurons ([2]; 1 μM) [%] | effects in the in vitro model of ALS [3] | increase in neurite network length ([3]; 0.1 μM, 0.5 μM and 1 μM, compared to glutamate injury alone) [%] | abnormal TDP43 accumulation in the cytoplasm resulting from glutamate injury ([3]; 0.1 μM, 0.5 µM, 1 μM and 10 μM) | decrease in α-syn area per dopaminergic TH positive neuron ([2]; 500 nM, 1 μM and 10 μM) [%] | increase in the length of the neurite network of dopaminergic TH positive neurons ([2]; 500 nM, 1 μM and 10 μM) [%] | increase in the number of dopaminergic TH positive neurons ([2]; 500 nM, 1 μM and 10 μM) [%] | abnormal cytoplasmic TDP-43 accumulation resulting from glutamate injury ([3]; 0.1 μM, 0.5 µM and 1 μM)
1 | C[C@H]1CN(C(=O)c2csc(-c3cnn(-c4ccccc4)c3)n2)CCN1 [Compound 157, (3S)-3-methyl-1-[2-(1-phenyl-1H-pyrazol-4-yl)-1,3-thiazole-4-carbonyl]piperazine] | 2153 | 1.5 | 1.8 | 81 | 1.8 | positive effects | 21 | 35 | 27 | positive effects | > 20 | fully abolished | – | – | – | –
2 | CCN1CCC(NC(=O)c2csc(-c3cnn(-c4ccccc4)c3)n2)CC1 [Compound 185, N-(1-ethylpiperidin-4-yl)-2-(1-phenyl-1H-pyrazol-4-yl)-1,3-thiazole-4-carboxamide] | 3457 | 1 | 13 | 100 | 18 | positive effects | – | – | – | positive effects | – | – | > 14 | > 27 | > 22 | fully abolished
